Molecular target: potassium channels (Sus scrofa, UniProt F1SR11)
Test: Functional potassium channel opening activity in isolated Landrace pig bladder strips (field-stimulated twitch)
Conditions: for Landrace Pig Bladder Index: ED50 for P1075 divided by ED50 for the test agonist, averaged over tissues; for Landrace Pig Bladder pD2: negative logarithm of ED50; for Emax: pig, maximal efficacy relative to P1075, field stimulation 0.05Hz, 0.5 milli-seconds at 20 volts
Procedure: The entire bladder was removed and ed into Krebs Ringer bicarbonate solution (composition, mM: NaCl,; dextrose, 1; KCl, 4.7; […] Propranolol (0.004 ed in all of the assays to block […]. The trigonal and dome […]. Strips 3-5 mm wide and 20 mm long were prepared from the cut in a circular fashion. The mucosal layer was removed. One end ationary glass rod and the other to a Grass FT03 transducer at a basal am. Two parallel platinum electrodes were included in the stationary ide field stimulation of 0.05Hz, 0.5 milli-seconds at 20 volts. […] Tissues were allowed to equilibrate for at least 60 minutes and primed with 80 mM KCl. A control concentration response curve (cumulative) was generated for each tissue using the potassium channel opener […] as the control agonist. […] After a 60 minute rinsing period, a concentration response curve (cumulative) was generated for the test agonist in the same fashion as that used for the control agonist […]. The maximal efficacy of each compound (expressed as % relative to […]) is reported. […] J. Physiol. 235, E97 (1980)), and agonist potencies were expressed as pD2 (the negative logarithm). Agonist potencies were also expressed as an index relative to […]. The index was calculated by dividing the ED50 for […] by the ED50 for the test agonist in a given tissue. Each tissue was used for only one test agonist, and the indices obtained from each tissue were averaged to provide an average index of potency.

Landrace Pig Bladder Index	Landrace Pig Bladder pD2	Emax	SMILES
0.15	6.2	99%	O=C1CCC2=C1C(c1ccc(Cl)c([N+](=O)[O-])c1)C1=C(CCS1(=O)=O)N2 (stereo not drawn) [Example 44, 8-(4-chloro-3-nitrophenyl)-2,3,4,5,6,8-hexahydro-7H-cyclopenta[b]thieno[2,3-e]pyridin-7-one 1,1-dioxide]
0.021	5.4	99%	O=[N+]([O-])c1cc(C2C3=C(CCS3(=O)=O)NC3=C2S(=O)(=O)CC3)ccc1Cl [Example 51, 8-(4-chloro-3-nitrophenyl)-2,3,4,5,6,8-hexahydrodithieno [3,2-b:2′,3′-e]pyridine, 1,1 7,7-tetraoxide]
0.17	6.6	100%	O=S1(=O)CCC2=C1C(c1ccc(F)c(Br)c1)C1=C(CCS1(=O)=O)N2 [Example 53, 8-(3-bromo-4-fluorophenyl)-2,3,4,5,6,8-hexahydrodithieno [3.2-b:2′,3′-e]pyridine, 1,1,7,7-tetraoxide]
0.026	5.3	94%	O=C1CCC2=C1C(c1cccc([N+](=O)[O-])c1)C1=C(CCS1(=O)=O)N2 (stereo not drawn) [Example 58, 2,3,4,5,6,8-hexahydro-8-(3-nitrophenyl)-7H-cyclopenta[b]thieno [2.3-e]pyridin-7-one, 1,1-dioxide]
0.71	7.1	100%	O=C1CCC2=C1C(c1ccc(F)c(Cl)c1)C1=C(CCS1(=O)=O)N2 (stereo not drawn) [Example 61, 8-(3-chloro-4-fluorophenyl)-2,3,4,5,6,8-hexahydro-7H-cyclopenta[b]thieno [2,3-e]pyridin-7-one, 1,1-dioxide]
0.15	6.2	98%	O=C1CCC2=C1C(c1csc([N+](=O)[O-])c1)C1=C(CCS1(=O)=O)N2 (stereo not drawn) [Example 69]
0.53	6.6	97%	O=C1CCC2=C1C(c1ccc(Br)c(Br)c1)C1=C(CCS1(=O)=O)N2 (stereo not drawn) [Example 72]
0.57	7.0	100%	O=C1CCCC2=C1[C@@H](c1ccc(F)c(Br)c1)C1=C(CCS1(=O)=O)N2 [Example 83, (+)-(9R)-9-(3-bromo-4-fluorophenyl)-2,3,5,6,7,9-hexahydrothieno [3.2-b]guinolin-8(4H)-one, 1,1-dioxide]
0.69	6.8	100%	O=C1CCCC2=C1[C@H](c1ccc(F)c(Br)c1)C1=C(CCS1(=O)=O)N2 [Example 84, (−)-(9S)-9-(3-bromo-4-fluorophenyl)-2,3,5,6,7,9-hexahydrothieno [3,2-b]quinolin-8(4H)-one, 1,1-dioxide]
0.075	4.7	98%	O=C1CCCC2=C1C(c1cc(Br)ccc1O)C1=C(CCS1(=O)=O)N2 (stereo not drawn) [Example 108, 9-(5-bromo-2-hydroxyphenyl)-2,3,5,6,7,9-hexahydrothieno[3,2-b]quinolin-8(4H)-one 1,1-dioxide]
0.032	5.7	99%	O=S1(=O)CCC2=C1C(c1ccc(F)c(Br)c1)C=C(C(F)(F)F)N2 (stereo not drawn) [Example 112, 7-(3-bromo-4-fluorophenyl)-5-(trifluoromethyl)-2,3,4,7-tetrahydrothieno [3,2-b]pyridine. 1,1-dioxide]
0.078	6.2	100%	O=C1CCCC2=C1C(c1cc(Br)c(F)cc1O)C1=C(CCS1(=O)=O)N2 (stereo not drawn) [Example 121, 9-(5-bromo-4-fluoro-2-hydroxyphenyl)-2.35,6,7,9-hexahydrothieno[3.2-b]quinolin-8(4H)-one, 1,1-dioxide]

The next lines start with the molecule.

SMILES	Landrace Pig Bladder Index	Landrace Pig Bladder pD2	Emax
O=C1CCCC2=C1C(c1cccc([N+](=O)[O-])c1)C1=C(CCCS1(=O)=O)N2 (stereo not drawn) [Example 1, 3,4,6,7,8,10-hexahydro-10-(3-nitrophenyl)-2H-thiopyrano[3,2-b]quinolin-9(5H)-one, 1,1-dioxide]	0.022	5.5	100%
O=C1CCCC2=C1C(c1ccc(Cl)c(Cl)c1)C1=C(CCCS1(=O)=O)N2 (stereo not drawn) [Example 2]	0.15	6.2	96%
O=C1CCCC2=C1C(c1ccc(F)c(Cl)c1)C1=C(CCCS1(=O)=O)N2 (stereo not drawn) [Example 3, 10-(3-chloro-4-fluorophenyl)-3,4,6,7,8,10-hexahydro-2H-thiopyrano [3,2-b]quinolin-9(5H)-one, 1,1-dioxide]	0.11	6.0	85%
O=C1CCCC2=C1C(c1ccc(F)c(Br)c1)C1=C(CCCS1(=O)=O)N2 (stereo not drawn) [Example 4, 10-(3-bromo-4-fluorophenyl)-3,4,6,7,8,10-hexahydro-2H-thiopyrano [3,2-b]quinolin-9(5H)-one, 1,1-dioxide]	0.18	6.2	93%
N#Cc1cccc(C2C3=C(CCCC3=O)NC3=C2S(=O)(=O)CCC3)c1 (stereo not drawn) [Example 5, 10-(3-cyanophenyl)-3,4,6,7,8,10-hexahydro-2H-thiopyrano [3,2-b]quinolin-9(5H)-one, 1,1-dioxide]	0.0076	4.8	96%
O=C1CCCC2=C1C(c1cccc(Cl)c1)C1=C(CCCS1(=O)=O)N2 (stereo not drawn) [Example 16, 10-(3-chlorophenyl)-3,4,6,7,8,10-hexahydro-2H-thiopyrano [3.2-b]quinolin-9(5H)-one, 1,1-dioxide]	0.011	5.0	100%
CC1=C(S(C)(=O)=O)C(c2cc(F)c(F)c(F)c2)C2=C(CCCC2=O)N1 (stereo not drawn) [Example 22, 4-(3,4,5-trifluorophenyl)-4,6,7,8-tetrahydro-2-methyl-3-(methylsulfonyl)-5(1H)-quinolinone]	0.0069	4.5	77%
CC1=C(S(C)(=O)=O)C(c2ccc(C)c([N+](=O)[O-])c2)C2=C(CCCC2=O)N1 (stereo not drawn) [Example 23, 4,6,7,8-tetrahydro-2-methyl-4-(4-methyl-3-nitrophenyl)-3-(methylsulfonyl)-5(1H)-quinolinone]	0.0053	4.4	81%
CC1=C(S(C)(=O)=O)C(c2ccc(F)c(Br)c2)C2=C(CCCC2=O)N1 (stereo not drawn) [Example 25, 4-(3-bromo-4-fluorophenyl)-4,6,7,8-tetrahydro-2-methyl-3-(methylsulfonyl)-5(1H)-guinolinone]	0.038	5.4	88%
CC1=C(S(C)(=O)=O)C(c2cccc([N+](=O)[O-])c2)C2=C(CCCC2=O)N1 (stereo not drawn) [Example 26, 4,6,7,8-tetrahydro-2-methyl-3-(methylsulfonyl)-4-(3-nitrophenyl)-5(1H)-quinolinone]	0.0099	4.5	78%
N#Cc1cccc(C2C3=C(CCCC3=O)NC3=C2S(=O)(=O)CC3)c1 (stereo not drawn) [Example 30, 9-(3-cyanophenyl)-2,3,5,6,7,9-hexahydrothieno [3.2-b]quinolin-8(4H)-one, 1,1-dioxide]	0.018	5.5	99%
O=C1CCCC2=C1C(c1ccc(Cl)c([N+](=O)[O-])c1)C1=C(CCS1(=O)=O)N2 (stereo not drawn) [Example 34, 9-(4-chloro-3-nitrophenyl)-2,3,5,6,7,9-hexahydrothieno [3,2-b]quinolin-8(4H)-one, 1,1-dioxide]	0.32	6.8	100%
CC(=O)C1=C(C)NC2=C(C1c1ccc(Cl)c([N+](=O)[O-])c1)S(=O)(=O)CCC2 (stereo not drawn) [Example 36]	0.040	5.5	97%
O=C1CCC2=C1C(c1ccc(Cl)c([N+](=O)[O-])c1)C1=C(CCCS1(=O)=O)N2 (stereo not drawn) [Example 38, 9-(4-chloro-3-nitrophenyl)-3,4,5,6,7,9-hexahydrocyclopenta[b]thiopyrano [2.3-e]pyridin-8(2H)-one, 1,1-dioxide]	0.14	6.2	98%
O=C1CCC2=C1C(c1ccc(F)c(Br)c1)C1=C(CCCS1(=O)=O)N2 (stereo not drawn) [Example 40, 9-(3-bromo-4-fluorophenyl)-3,4,5,6,7,9-hexahydrocyclopenta[b]thiopyrano [2.3-e]pyridin-8(2H)-one, 1,1-dioxide]	0.46	6.9	98%
O=C1CCCC2=C1C(c1ccc(F)c(Br)c1)C1=C(CCS1(=O)=O)N2 (stereo not drawn) [Example 43, 9-(3-bromo-4-fluoronhenyl)-2,3,5,6,7,9-hexahydrothieno [3,2-b]quinolin-8(4H)-one, 1,1-dioxide]	0.41	6.6	98%
